Several values for one entry are separate records, joined by “and”; a condition that tells them apart may be missing. Equal entries are not always repeated.
Tests used:
Homo sapiens = test: (§1) Evaluation of pharmacokinetic parameters for Drosporine following multiple co-administration of 3 mg Drosporine tablets and […] ethinyl estradiol to 12 healthy female subjects.; format: ADME, organism-based; parameters: dose 3 mg, route oral; details: in vivo, po, dosed compound id 30, dosed compound name DROSPIRENONE, gender female, regimen Once daily, study dosing duration 21 days, tissue Serum
[1] = as §1; format: ADME, organism-based; parameters: dose 3 mg, route oral; details: human, in vivo, dose 3 mg, dosed compound id 30, dosed compound name DROSPIRENONE, gender female, regimen Once daily, route oral, study dosing duration 21 days, tissue Serum
[2] = dose 3 mg, sampling time1 21 day

SMILES: C[C@]12CCC(=O)C=C1[C@@H]1C[C@@H]1[C@H]1[C@@H]3[C@@H]4C[C@@H]4[C@@]4(CCC(=O)O4)[C@@]3(C)CC[C@@H]12 [DROSPIRENONE]
- Tmax (Homo sapiens; [2]): 1.8 h and 1.6 h
- t1/2 (Homo sapiens; [2]): 31.4 h
- AUC(0-24) (Homo sapiens; sampling time1 1 day): 288 ng·h/mL
- Cmax (Homo sapiens; sampling time1 1 day): 36.9 ng/mL
- AUC(0-24) (Homo sapiens; sampling time1 21 day): 957 ng.hr/mL [middle of 4 runs]
- Cmax (Homo sapiens; sampling time1 21 day): 84.2 ng/mL [middle of 4 runs]
- Tmax ([1]; sampling time1 1 day): 1.7 h
- half-life ([1]; sampling time1 21 day): 32.5 h
